Assay results taken from patent US9890146B2, “Compound having selective EP2 agonist activity” (ONO PHARMACEUTICAL CO., LTD., priority 2014, dated 2018).
Each block holds one molecule with its values, some of them ahead of it.

How the values were obtained:
[1] = test system: male monkey (a cynomolgus monkey); assay: Intraocular pressure lowering activity after ocular instillation; format: in vivo; details: Primates, in Macaca fascicularis, topical, maximum rate during 24 hours after ocular instillation of 30 μL, conscious monkey; for inhibition in vivo at 100 µg/mL: administration concentration 100 μg/mL; for inhibition in vivo at 30 µg/mL: administration concentration 30 μg/mL; for inhibition in vivo at 10 µg/mL: administration concentration 10 μg/mL; for inhibition in vivo at 3 µg/mL: administration concentration 3 μg/mL
Method: As can be easily understood by a person skilled in the art, in an in vivo test, since regarding all test compounds, carboxylic acid which is an active body has poor corneal permeability, pharmacological action of the active body was evaluated by ocular instillation administration of a compound which had been converted into an ester such as an ethyl ester or an isopropyl ester, or an alcohol.
A test compound-containing solution (30 μL) which had been adjusted to each of various concentrations was ocular instillation-administered to the left or right eye of a male monkey (a cynomolgus monkey) under consciousness. An intraocular pressure after administration was measured with time from administration initiation to after 24 hours. Upon measurement of an intraocular pressure, a cynomolgus monkey was fixed on a monkey chair, and the monkey was anesthetized by ocular instillation-administering an ocular surface anesthetic (Benoxil eye drops 0.4% Santen Pharmaceutical Co., Ltd.). After mounting of a blepharostat (Handaya Co., Ltd.), an intraocular pressure of both eyes was measured (7 to 8 examples per group) using a pneumatic applanation flat tonometer (Model 30 Classic, REICHERT). A difference between an intraocular pressure value before the administration of a test substance and an intraocular pressure value after the administration of the test substance was calculated as an intraocular pressure lowering rate in accordance with the following equation, and the sustainability of intraocular eye lowering action was evaluated using a maximum intraocular pressure lowering rate during measurement.
The administered concentrations were determined based on the EP2 agonist activities measured by the above-mentioned method.

human EP2 = molecular target: T1, human EP2 (Homo sapiens, UniProt P43116); assay: Measurement of EP2 agonist activity (measurement of cAMP concentration); format: cell-based; details: prior-art compounds having an analogous structure, same EP2 test; read-out: EP2 agonist activities, EC50 values
T1 construct: expressed in transfected cells; host or cells: CHO cells (EP2-CHO)
Method: Using Chem1 cells or CHO cells in which various prostanoid receptors were forcibly expressed, respectively, agonist activities of test compounds on various prostanoid receptors was determined employing, as a measure, an intracellular cyclic AMP (hereinbelow, abbreviated as “cAMP”) production amount or an intracellular calcium concentration.
The test compound and a control substance (PGE2 and PGF2α) were dissolved in dimethyl sulfoxide (DMSO) to prepare a 10 mmol/L solution. The 10 mmol/L solution thus prepared was thawed upon use, then serially diluted with DMSO, and then diluted with a buffer solution for measurement use or a buffer solution for measurement use 2, and then the resulting solution was subjected to an experiment.
Cells forcibly expressing various prostanoid receptors were standing-cultured at 37° C. in the presence of 5% CO2 using a DMEM medium (Sigma) (for culturing FP-Chem1) containing inactivated (56° C., 30 minutes) 9.8 vol % nondialysed-FBS (Life Technologies), 1 vol % Non Essential Amino Acids (Life Technologies), 10 mmol/L HEPES Buffer Solution (Life Technologies), 0.5 vol % GENETICIN (Life Technologies) and 1% penicillin-streptomycin (Life Technologies) or an α-MEM medium (Sigma) (for culturing EP2-CHO) containing inactivated (56° C., 30 minutes) 9.8 vol % dialysed-FBS (Life Technologies) and penicillin-streptomycin-glutamine (Life Technologies). Subculturing was carried out by the following manner.
The medium was removed, and washed with a phosphate-buffered physiological saline not containing Ca^2+ and Mg^2+ one time. A proper amount of trypsin-EDTA (Life Technologies) was added, and this was incubated at room temperature, cells were peeled, and a medium having a volume which is 10-fold a volume of trypsin-EDTA was added to stop an enzymatic reaction. After cells were recovered into a centrifuging tube, and centrifuged at room temperature for 3 minutes at 120 g, the supernatant was removed. Cells were suspended in a proper amount of a medium, and seeded in a culturing flask.
On the measurement day, a medium was removed, and EP2-CHO was washed with a phosphate-buffered physiological saline containing 2 mmol/L EDTA and not containing Ca^2+ and Mg^2+ one time. A proper amount of the phosphate-buffered physiological saline containing 2 mmol/L EDTA and not containing Ca^2+ and Mg^2+ was added, this was incubated at 37° C. in the presence of 5% CO2, cells were peeled, cells were recovered into a centrifuging tube, and centrifuged at room temperature for 3 minutes at 550 g, and the supernatant was removed. Cells were suspended in a proper amount of a buffer solution for measurement 1 (MEM medium (Invitrogen) containing 1.0 w/v % bovine serum albumin (Sigma) and 2 μmol/L diclofenac (Sigma)), and centrifuged at room temperature for 3 minutes at 200 g, and the supernatant was removed. Cells were suspended in a buffer solution for measurement 2 (MEM medium (Invitrogen) containing 1.0 w/v % bovine serum albumin (Sigma), 2 μmol/L diclofenac (Sigma) and 1 mmol/L 3-isobutyl-1-methylxanthine), and each 25 μL of the suspension was dispensed into a 96-well ½ area plate so that the cell number per well became […]. A buffer solution for measurement 2 (25 μL) containing an agonist at a variety of concentrations was added to carry out a reaction at room temperature for 30 minutes. Measurement of a cAMP concentration was carried out using the cAMP HTRF HiRange kit (CIS bio International). According to the two step protocol of the kit manual, each 25 μL of cAMP-D2 and Cryptase diluted with a lysis buffer were added, and this was incubated at room temperature for 1 hour. After incubation for 1 hour, time resolution fluorescence at 620 nm and 660 nm when excited at 340 nm was measured using SpectraMax M5e (Molecular Device), and a ratio (TRF ratio) was obtained, thereby, a cAMP concentration was calculated from a calibration line. […]

T1 sequence (P43116 whole entry): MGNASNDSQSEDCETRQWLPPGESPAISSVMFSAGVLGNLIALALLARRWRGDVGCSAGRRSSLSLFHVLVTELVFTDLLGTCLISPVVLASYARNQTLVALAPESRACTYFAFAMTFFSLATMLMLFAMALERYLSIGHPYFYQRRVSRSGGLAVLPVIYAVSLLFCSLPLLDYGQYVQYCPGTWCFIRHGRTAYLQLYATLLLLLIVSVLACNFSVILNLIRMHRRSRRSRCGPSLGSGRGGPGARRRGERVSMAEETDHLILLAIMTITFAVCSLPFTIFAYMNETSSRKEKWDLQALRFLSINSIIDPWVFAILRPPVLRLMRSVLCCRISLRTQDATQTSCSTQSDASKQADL

SMILES: OCc1csc([C@H]2CC[C@@H]3[C@@H](COc4ccc5c(c4)CCC5)[C@H](O)C[C@@H]3O2)n1 [2(4), (2R,4aR,5S,6R,7aS)-5-[(2,3-dihydro-1H-inden-5-yloxy)methyl]-2-[4-(hydroxymethyl)-1,3-thiazol-2-yl]octahydrocyclopenta[b]pyran-6-ol]
- inhibition in vivo at 100 µg/mL [1]: 40%

SMILES: OCc1csc([C@H]2CC[C@@H]3[C@@H](COc4ccc5[nH]ccc5c4)[C@H](O)C[C@@H]3O2)n1 [2(5), (2R,4aR,5S,6R,7aS)-2-[4-(hydroxymethyl)-1,3-thiazol-2-yl]-5-[(1H-indol-5-yloxy)methyl]octahydrocyclopenta[b]pyran-6-ol]
- inhibition in vivo at 30 µg/mL [1]: 48%

SMILES: OCc1csc([C@H]2CC[C@@H]3[C@@H](COc4ccc5c(c4)CC5)[C@H](O)C[C@@H]3O2)n1 [2(7), (2R,4aR,5S,6R,7aS)-5-[(bicyclo[4.2.0]octa-1,3,5-trien-3-yloxy)methyl]-2-[4-(hydroxymethyl)-1,3-thiazol-2-yl]octahydrocyclopenta[b]pyran-6-ol]
- inhibition in vivo at 30 µg/mL [1]: 38%

SMILES: OCc1csc([C@H]2CC[C@@H]3[C@@H](COc4ccc5ccoc5c4)[C@H](O)C[C@@H]3O2)n1 [2(8), (2R,4aR,5S,6R,7aS)-5-[(1-benzofuran-6-yloxy)methyl]-2-[4-(hydroxymethyl)-1,3-thiazol-2-yl]octahydrocyclopenta[b]pyran-6-ol]
- inhibition in vivo at 30 µg/mL [1]: 55%

SMILES: CCc1cc(OC[C@@H]2[C@H]3CC[C@H](c4nc(CO)cs4)O[C@H]3C[C@H]2O)ccc1C [2(9), (2R,4aR,5S,6R,7aS)-5-[(3-ethyl-4-methylphenoxy)methyl]-2-[4-(hydroxymethyl)-1,3-thiazol-2-yl]octahydrocyclopenta[b]pyran-6-ol]
- inhibition in vivo at 10 µg/mL [1]: 52%

SMILES: OCc1csc([C@H]2CC[C@@H]3[C@@H](COc4ccc(Cl)c(C5CC5)c4)[C@H](O)C[C@@H]3O2)n1 [2(10), (2R,4aR,5S,6R,7aS)-5-[(4-chloro-3-cyclopropylphenoxy)methyl]-2-[4-(hydroxymethyl)-1,3-thiazol-2-yl]octahydrocyclopenta[b]pyran-6-ol]
- inhibition in vivo at 10 µg/mL [1]: 31%

SMILES: Cc1ccc(OC[C@@H]2[C@H]3CC[C@H](c4nc(CO)cs4)O[C@H]3C[C@H]2O)cc1C [2(12), (2R,4aR,5S,6R,7aS)-5-[(3,4-dimethylphenoxy)methyl]-2-[4-(hydroxymethyl)-1,3-thiazol-2-yl]octahydrocyclopenta[b]pyran-6-ol]
- inhibition in vivo at 10 µg/mL [1]: 43%

SMILES: Cc1cc(OC[C@@H]2[C@H]3CC[C@H](c4nc(CO)cs4)O[C@H]3C[C@H]2O)ccc1Cl [2(13), (2R,4aR,5S,6R,7aS)-5-[(4-chloro-3-methylphenoxy)methyl]-2-[4-(hydroxymethyl)-1,3-thiazol-2-yl]octahydrocyclopenta[b]pyran-6-ol]
- inhibition in vivo at 3 µg/mL [1]: 31%

SMILES: OCc1csc([C@H]2CC[C@@H]3[C@@H](COc4cccc5c4CCC5)[C@H](O)C[C@@H]3O2)n1 [2(14), (2R,4aR,5S,6R,7aS)-5-[(2,3-dihydro-1H-inden-4-yloxy)methyl]-2-[4-(hydroxymethyl)-1,3-thiazol-2-yl]octahydrocyclopenta[b]pyran-6-ol]
- inhibition in vivo at 30 µg/mL [1]: 45%

SMILES: OCc1csc([C@H]2CC[C@@H]3[C@@H](COc4ccc5c(c4F)CCC5)[C@H](O)C[C@@H]3O2)n1 [2(16), (2R,4aR,5S,6R,7aS)-5-{[(4-fluoro-2,3-dihydro-1H-inden-S-yl)oxy]methyl}-2-[4-(hydroxymethyl)-1,3-thiazol-2-yl]octahydrocyclopenta[b]pyran-6-ol]
- inhibition in vivo at 30 µg/mL [1]: 51%

SMILES: CC(C)OC(=O)c1csc([C@H]2CC[C@@H]3[C@@H](COc4ccccc4)[C@H](O)C[C@@H]3O2)n1 [3(1), isopropyl 2-[(2R,4aR,5S,6R,7aS)-6-hydroxy-5-(phenoxymethyl)octahydrocyclopenta[b]pyran-2-yl]-1,3-thiazole-4-carboxylate]
- inhibition in vivo at 100 µg/mL [1]: 28%

SMILES: Cc1cc(OC[C@@H]2[C@H]3CC[C@H](c4nc(C(=O)OC(C)C)cs4)O[C@H]3C[C@H]2O)ccc1[N+](=O)[O-] [3(3), isopropyl 2-{(2R,4aR,5S,6R,7aS)-6-hydroxy-5-[(3-methyl-4-nitrophenoxy)methyl]octahydrocyclopenta[b]pyran-2-yl}-1,3-thiazole-4-carboxylate]
- inhibition in vivo at 3 µg/mL [1]: 33%

SMILES: CC(C)OC(=O)c1csc([C@H]2CC[C@@H]3[C@@H](COc4ccc5c(c4)CCC5)[C@H](O)C[C@@H]3O2)n1 [3(4)]
- inhibition in vivo at 30 µg/mL [1]: 35%

SMILES: OCc1csc([C@H]2CC[C@@H]3[C@@H](COc4ccc5c(c4)CCC5)[C@@H](O)C[C@@H]3O2)n1 [10(1), (2R,4aR,5S,6S,7aS)-5-[(2,3-dihydro-1H-inden-5-yloxy)methyl]-2-[4-(hydroxymethyl)-1,3-thiazol-2-yl]octahydrocyclopenta[b]pyran-6-ol]
- inhibition in vivo at 3 µg/mL [1]: 29%

SMILES: CCc1cc(OC[C@@H]2[C@H]3CC[C@H](c4nc(CO)cs4)O[C@H]3C[C@@H]2O)ccc1C [10(3), (2R,4aR,5S,6S,7aS)-5-[(3-ethyl-4-methylphenoxy)methyl]-2-[4-(hydroxymethyl)-1,3-thiazol-2-yl]octahydrocyclopenta[b]pyran-6-ol]
- inhibition in vivo at 1 µg/mL ([1]; administration concentration 1 μg/mL): 49%

SMILES: OCc1csc([C@H]2CC[C@@H]3[C@@H](COc4ccc5c(c4)CCCC5)[C@@H](O)C[C@@H]3O2)n1 [10(7), (2R,4aR,5S,6S,7aS)-2-[4-(hydroxymethyl)-1,3-thiazol-2-yl]-5-[(5,6,7,8-tetrahydro-2-naphthalenyloxy)methyl]octahydrocyclopenta[b]pyran-6-ol]
- inhibition in vivo at 10 µg/mL [1]: 41%

- EC50 (human EP2): ≥ 10 µM
SMILES: O=C(O)c1csc([C@H]2CC[C@@H]3[C@@H](/C=C/[C@@H](O)COc4ccccc4)[C@H](O)C[C@@H]3OC2)n1 [reference compound]

- EC50 (human EP2): ≥ 10 µM
SMILES: O=C(O)c1ccc(C2=CC[C@@H]3[C@@H](/C=C/[C@@H](O)C4CCCC4)[C@H](O)C[C@@H]3O2)o1 [reference compound]

- EC50 (human EP2): ≥ 10 µM
SMILES: CCCCC[C@H](O)/C=C/[C@@H]1[C@H]2CCC(c3ccccc3CC(=O)O)O[C@H]2C[C@H]1O (stereo partly shown) [reference compound]
